Measurements from ChEMBL document CHEMBL4257451, “Synergism of fused bicyclic 2-aminothiazolyl compounds with polymyxin B against Klebsiella pneumoniae” (Medchemcomm, 2017).
One block for each molecule: values may come before it. The source made the active and inactive calls. The rule behind the calls is not given here.

What was measured:
Acinetobacter baumannii [1] = experiment: Growth inhibition of Acinetobacter baumannii isolate 1 by broth microdilution method; type: organism-based
Acinetobacter baumannii [2] = experiment: Synergistic antibacterial activity against Acinetobacter baumannii isolate 2 assessed as polymixin B MIC at 4 ug/ml by broth microdilution method (reference value: 1 ug/ml); type: functional
Acinetobacter baumannii [3] = experiment: Growth inhibition of Acinetobacter baumannii isolate 2 by broth microdilution method; type: organism-based
Klebsiella pneumoniae [4] = experiment: Synergistic antibacterial activity against Klebsiella pneumoniae KPN-2967 assessed as polymixin B MIC at 4 ug/ml by broth microdilution method (reference value: 0.5 ug/ml); type: functional
Escherichia coli [5] = experiment: Synergistic antibacterial activity against Escherichia coli ATCC 25922 assessed as polymixin B MIC at 4 ug/ml by broth microdilution method (reference value: 0.25 ug/ml); type: functional
Escherichia coli [6] = experiment: Synergistic antibacterial activity against Escherichia coli isolate 2945 in presence of polymixin B by broth microdilution method (reference value: 0.125 ug/ml); type: functional
Klebsiella pneumoniae [7] = experiment: Synergistic antibacterial activity against Klebsiella pneumoniae KPN-2677 assessed as fold reduction in polymixin B MIC by broth microdilution method relative to polymixin B alone; type: functional
Pseudomonas aeruginosa [8] = experiment: Synergistic antibacterial activity against Pseudomonas aeruginosa isolate 1399 in presence of polymixin B by broth microdilution method (reference value: 1 ug/ml); type: functional
Klebsiella pneumoniae [9] = experiment: Synergistic antibacterial activity against Klebsiella pneumoniae KPN-2677 assessed as polymixin B MIC at 4 ug/ml by broth microdilution method (reference value: 0.5 ug/ml); type: functional
Acinetobacter baumannii [10] = experiment: Growth inhibition of Acinetobacter baumannii ATCC 19606 by broth microdilution method; type: organism-based, ATCC 19606 = CIP 70.34 = JCM 6841
Acinetobacter baumannii [11] = experiment: Synergistic antibacterial activity against Acinetobacter baumannii isolate 4 assessed as polymixin B MIC at 4 ug/ml by broth microdilution method (reference value: 0.5 ug/ml); type: functional
Escherichia coli [12] = experiment: Growth inhibition of Escherichia coli isolate 2945 by broth microdilution method; type: organism-based
Escherichia coli [13] = experiment: Growth inhibition of Escherichia coli isolate 2944 by broth microdilution method; type: organism-based
Klebsiella pneumoniae [14] = experiment: Synergistic bactericidal activity against Klebsiella pneumoniae SIPI-KPN-1712 at 4 ug/ml in presence of 0.5 to 1 ug/ml polymixin B up to 24 hrs by time kill assay; type: functional, organism-based
Acinetobacter baumannii [15] = experiment: Synergistic antibacterial activity against Acinetobacter baumannii isolate 2 in presence of polymixin B by broth microdilution method; type: functional
Klebsiella pneumoniae [16] = experiment: Synergistic antibacterial activity against Klebsiella pneumoniae SIPI-KPN-1712 assessed as fold reduction in polymixin B MIC at 2 ug/ml by broth microdilution method relative to polymixin B alone; type: functional
Acinetobacter baumannii [17] = experiment: Synergistic antibacterial activity against Acinetobacter baumannii isolate 1 in presence of polymixin B by broth microdilution method; type: functional
Escherichia coli [18] = experiment: Growth inhibition of Escherichia coli ATCC 25922 by broth microdilution method; type: organism-based
Acinetobacter baumannii [19] = experiment: Synergistic antibacterial activity against Acinetobacter baumannii isolate 3 in presence of polymixin B by broth microdilution method; type: functional
Pseudomonas aeruginosa [20] = experiment: Synergistic antibacterial activity against Pseudomonas aeruginosa isolate 1292 assessed as polymixin B MIC at 4 ug/ml by broth microdilution method (reference value: 2 ug/ml); type: functional
Klebsiella pneumoniae [21] = experiment: Synergistic antibacterial activity against Klebsiella pneumoniae SIPI-KPN-1712 assessed as polymixin B MIC at 4 ug/ml by broth microdilution method (reference value: 32 ug/ml); type: functional
Pseudomonas aeruginosa [22] = experiment: Synergistic antibacterial activity against Pseudomonas aeruginosa ATCC 27853 assessed as polymixin B MIC at 4 ug/ml by broth microdilution method (reference value: 1 ug/ml); type: functional
Acinetobacter baumannii [23] = experiment: Growth inhibition of Acinetobacter baumannii isolate 4 by broth microdilution method; type: organism-based
Klebsiella pneumoniae [24] = experiment: Synergistic antibacterial activity against Klebsiella pneumoniae KPN-2967 in presence of polymixin B by broth microdilution method; type: functional
Klebsiella pneumoniae [25] = experiment: Synergistic antibacterial activity against Klebsiella pneumoniae SIPI-KPN-1712 assessed as fold reduction in polymixin B MIC at 8 ug/ml by broth microdilution method relative to polymixin B alone; type: functional
Klebsiella pneumoniae [26] = experiment: Synergistic antibacterial activity against Klebsiella pneumoniae SIPI-KPN-1712 assessed as fold reduction in polymixin B MIC at 1 ug/ml by broth microdilution method relative to polymixin B alone; type: functional
Klebsiella pneumoniae [27] = experiment: Synergistic antibacterial activity against Klebsiella pneumoniae KPN-2677 in presence of polymixin B by broth microdilution method; type: functional
Acinetobacter baumannii [28] = experiment: Synergistic antibacterial activity against Acinetobacter baumannii ATCC 19606 in presence of polymixin B by broth microdilution method; type: functional, ATCC 19606 = CIP 70.34 = JCM 6841
Klebsiella pneumoniae [29] = experiment: Growth inhibition of Klebsiella pneumoniae KPN-2967 by broth microdilution method; type: organism-based; conditions: in vivo
Pseudomonas aeruginosa [30] = experiment: Synergistic antibacterial activity against Pseudomonas aeruginosa isolate 1292 in presence of polymixin B by broth microdilution method (reference value: 2 ug/ml); type: functional
Pseudomonas aeruginosa [31] = experiment: Synergistic antibacterial activity against Pseudomonas aeruginosa isolate 1399 assessed as polymixin B MIC at 4 ug/ml by broth microdilution method (reference value: 1 ug/ml); type: functional
Acinetobacter baumannii [32] = experiment: Growth inhibition of Acinetobacter baumannii isolate 3 by broth microdilution method; type: organism-based
Escherichia coli [33] = experiment: Synergistic antibacterial activity against Escherichia coli isolate 2945 assessed as polymixin B MIC at 4 ug/ml by broth microdilution method (reference value: 0.125 ug/ml); type: functional
Klebsiella pneumoniae [34] = experiment: Synergistic antibacterial activity against Klebsiella pneumoniae SIPI-KPN-1712 assessed as fractional Inhibitory concentration index in presence of polymixin B at 2 ug/ml by broth microdilution method; type: functional
Klebsiella pneumoniae [35] = experiment: Synergistic antibacterial activity against Klebsiella pneumoniae SIPI-KPN-1712 assessed as fold reduction in polymixin B MIC at 4 ug/ml by broth microdilution method relative to polymixin B alone; type: functional
Pseudomonas aeruginosa [36] = experiment: Growth inhibition of Pseudomonas aeruginosa ATCC 27853 by broth microdilution method; type: organism-based
Acinetobacter baumannii [37] = experiment: Synergistic antibacterial activity against Acinetobacter baumannii ATCC 19606 assessed as polymixin B MIC at 4 ug/ml by broth microdilution method (reference value: 0.5 ug/ml); type: functional; conditions: ATCC 19606 = CIP 70.34 = JCM 6841
Klebsiella pneumoniae [38] = experiment: Growth inhibition of Klebsiella pneumoniae SIPI-KPN-1712 by broth microdilution method; type: organism-based; conditions: in vitro
Pseudomonas aeruginosa [39] = experiment: Growth inhibition of Pseudomonas aeruginosa isolate 1292 by broth microdilution method; type: organism-based; conditions: in vivo
Pseudomonas aeruginosa [40] = experiment: Synergistic antibacterial activity against Pseudomonas aeruginosa ATCC 27853 in presence of polymixin B by broth microdilution method (reference value: 1 ug/ml); type: functional
Klebsiella pneumoniae [41] = experiment: Synergistic antibacterial activity against Klebsiella pneumoniae KPN-2967 assessed as fold reduction in polymixin B MIC by broth microdilution method relative to polymixin B alone; type: functional
Pseudomonas aeruginosa [42] = experiment: Growth inhibition of Pseudomonas aeruginosa isolate 1399 by broth microdilution method; type: organism-based; conditions: in vivo
Klebsiella pneumoniae [43] = experiment: Growth inhibition of Klebsiella pneumoniae KPN-2677 by broth microdilution method; type: organism-based
Escherichia coli [44] = experiment: Synergistic antibacterial activity against Escherichia coli isolate 2944 in presence of polymixin B by broth microdilution method (reference value: 0.125 ug/ml); type: functional
Acinetobacter baumannii [45] = experiment: Synergistic antibacterial activity against Acinetobacter baumannii isolate 1 assessed as polymixin B MIC at 4 ug/ml by broth microdilution method (reference value: 2 ug/ml); type: functional
Escherichia coli [46] = experiment: Synergistic antibacterial activity against Escherichia coli isolate 2944 assessed as polymixin B MIC at 4 ug/ml by broth microdilution method (reference value: 0.125 ug/ml); type: functional
Klebsiella pneumoniae [47] = experiment: Synergistic bactericidal activity against Klebsiella pneumoniae SIPI-KPN-1712 at 4 ug/ml in presence of 2 to 4 ug/ml polymixin B up to 24 hrs by time kill assay; type: functional, organism-based
Acinetobacter baumannii [48] = experiment: Synergistic antibacterial activity against Acinetobacter baumannii isolate 3 assessed as polymixin B MIC at 4 ug/ml by broth microdilution method (reference value: 0.5 ug/ml); type: functional
Klebsiella pneumoniae [49] = experiment: Synergistic antibacterial activity against Klebsiella pneumoniae SIPI-KPN-1712 assessed as fold reduction in polymixin B MIC at 16 ug/ml by broth microdilution method relative to polymixin B alone; type: functional
Klebsiella pneumoniae [50] = experiment: Bactericidal activity against Klebsiella pneumoniae SIPI-KPN-1712 at 4 ug/ml up to 24 hrs by time kill assay; type: ADME, organism-based
Acinetobacter baumannii [51] = experiment: Synergistic antibacterial activity against Acinetobacter baumannii isolate 4 in presence of polymixin B by broth microdilution method; type: functional
Escherichia coli [52] = experiment: Synergistic antibacterial activity against Escherichia coli ATCC 25922 in presence of polymixin B by broth microdilution method; type: functional

SMILES: OC1CCCc2nc(Nc3ccc(Cl)cc3)sc21 (stereo not given)
MIC (Acinetobacter baumannii [1]): > 64 µg/mL | MIC (Acinetobacter baumannii [2]): 1 µg/mL | MIC (Acinetobacter baumannii [3]): > 64 µg/mL | MIC (Klebsiella pneumoniae [4]): 0.5 µg/mL | MIC (Escherichia coli [5]): 0.25 µg/mL | fractional inhibitory concentration index (FICI) (Escherichia coli [6]): 0.28 | fold change (FC) (Klebsiella pneumoniae [7]): 32 | fractional inhibitory concentration index (FICI) (Pseudomonas aeruginosa [8]): 0.53 | MIC (Klebsiella pneumoniae [9]): 0.5 µg/mL | MIC (Acinetobacter baumannii [10]): > 64 µg/mL | MIC (Acinetobacter baumannii [11]): 0.5 µg/mL | MIC (Escherichia coli [12]): > 64 µg/mL | MIC (Escherichia coli [13]): > 64 µg/mL | Activity (Klebsiella pneumoniae [14]): inactive | fractional inhibitory concentration index (FICI) (Acinetobacter baumannii [15]): 0.28 | fold change (FC) (Klebsiella pneumoniae [16]): 16 | fractional inhibitory concentration index (FICI) (Acinetobacter baumannii [17]): 0.53 | MIC (Escherichia coli [18]): > 64 µg/mL | fractional inhibitory concentration index (FICI) (Acinetobacter baumannii [19]): 0.53 | MIC (Pseudomonas aeruginosa [20]): 2 µg/mL | MIC (Klebsiella pneumoniae [21]): 0.5 µg/mL | MIC (Pseudomonas aeruginosa [22]): 1 µg/mL | MIC (Acinetobacter baumannii [23]): > 64 µg/mL | fractional inhibitory concentration index (FICI) (Klebsiella pneumoniae [24]): 0.16 | fold change (FC) (Klebsiella pneumoniae [25]): 128 | fold change (FC) (Klebsiella pneumoniae [26]): 4 | fractional inhibitory concentration index (FICI) (Klebsiella pneumoniae [27]): 0.06 | fractional inhibitory concentration index (FICI) (Acinetobacter baumannii [28]): 0.53 | MIC (Klebsiella pneumoniae [29]): > 64 µg/mL | fractional inhibitory concentration index (FICI) (Pseudomonas aeruginosa [30]): 1.03 | MIC (Pseudomonas aeruginosa [31]): 1 µg/mL | MIC (Acinetobacter baumannii [32]): > 64 µg/mL | MIC (Escherichia coli [33]): 0.125 µg/mL | fractional inhibitory concentration index (FICI) (Klebsiella pneumoniae [34]): 0.05 | fold change (FC) (Klebsiella pneumoniae [35]): 64 | MIC (Pseudomonas aeruginosa [36]): > 64 µg/mL | MIC (Acinetobacter baumannii [37]): 0.5 µg/mL | MIC (Klebsiella pneumoniae [38]): > 128 µg/mL | MIC (Pseudomonas aeruginosa [39]): > 64 µg/mL | fractional inhibitory concentration index (FICI) (Pseudomonas aeruginosa [40]): 1.03 | fold change (FC) (Klebsiella pneumoniae [41]): 8 | MIC (Pseudomonas aeruginosa [42]): > 64 µg/mL | MIC (Klebsiella pneumoniae [43]): > 64 µg/mL | fractional inhibitory concentration index (FICI) (Escherichia coli [44]): 0.28 | MIC (Acinetobacter baumannii [45]): 2 µg/mL | MIC (Escherichia coli [46]): 0.125 µg/mL | Activity (Klebsiella pneumoniae [47]): Active | MIC (Acinetobacter baumannii [48]): 0.5 µg/mL | fold change (FC) (Klebsiella pneumoniae [49]): 128 | Activity (Klebsiella pneumoniae [50]): Non-Toxic | fractional inhibitory concentration index (FICI) (Acinetobacter baumannii [51]): 0.53 | fractional inhibitory concentration index (FICI) (Escherichia coli [52]): 0.53

SMILES: COC1CCCc2nc(Nc3ccc(Br)cc3)sc21 (stereo not given)
MIC (Klebsiella pneumoniae [21]): 2 µg/mL | fractional inhibitory concentration index (FICI) (Klebsiella pneumoniae [34]): 0.09 | fold change (FC) (Klebsiella pneumoniae [35]): 16 | MIC (Klebsiella pneumoniae [38]): > 128 µg/mL

SMILES: COC1CCCc2nc(NCc3ccccc3)sc21 (stereo not given)
MIC (Klebsiella pneumoniae [21]): 32 µg/mL | fractional inhibitory concentration index (FICI) (Klebsiella pneumoniae [34]): 1.03 | MIC (Klebsiella pneumoniae [38]): > 128 µg/mL

Continued, in another order:

MIC (Klebsiella pneumoniae [21]): 8 µg/mL
SMILES: Clc1ccc(Nc2nc3c(s2)C(OC2CCCC2)CCC3)cc1 (stereo not given)
fractional inhibitory concentration index (FICI) (Klebsiella pneumoniae [34]): 0.28 | MIC (Klebsiella pneumoniae [38]): > 128 µg/mL

MIC (Klebsiella pneumoniae [21]): 4 µg/mL
SMILES: CCOC1CCCc2nc(Nc3ccc(C)cc3)sc21 (stereo not given)
fractional inhibitory concentration index (FICI) (Klebsiella pneumoniae [34]): 0.16 | MIC (Klebsiella pneumoniae [38]): > 128 µg/mL
